Measurements taken from publication PMC5141248 (Biochemistry, 2016).

Target: human CP4H1 (Homo sapiens, UniProt P13674)
Test: UPLC peptide hydroxylation assay
Type: biochemical
Details: turnover; cosubstrate 0.1-10 mM, dansylGlyProProGlyOEt 500 μM, Fe(II) 50 μM, ascorbate 2 mM, pH 7.8, 30 °C

Chain of human CP4H1 (P13674 18-534): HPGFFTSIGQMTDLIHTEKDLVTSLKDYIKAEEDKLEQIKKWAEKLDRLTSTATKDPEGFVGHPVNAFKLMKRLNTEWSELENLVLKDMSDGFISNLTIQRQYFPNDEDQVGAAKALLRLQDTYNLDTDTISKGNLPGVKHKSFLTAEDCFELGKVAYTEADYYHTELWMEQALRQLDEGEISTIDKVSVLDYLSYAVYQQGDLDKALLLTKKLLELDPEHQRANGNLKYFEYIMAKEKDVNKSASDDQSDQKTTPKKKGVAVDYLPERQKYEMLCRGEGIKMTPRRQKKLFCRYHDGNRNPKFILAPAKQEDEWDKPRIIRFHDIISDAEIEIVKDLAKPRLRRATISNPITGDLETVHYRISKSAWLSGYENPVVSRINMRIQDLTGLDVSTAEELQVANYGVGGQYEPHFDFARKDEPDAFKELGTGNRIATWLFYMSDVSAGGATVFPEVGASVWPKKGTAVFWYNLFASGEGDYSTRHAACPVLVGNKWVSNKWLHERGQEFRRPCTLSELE
Chain of human CP4H1 (P07237 18-508 partner): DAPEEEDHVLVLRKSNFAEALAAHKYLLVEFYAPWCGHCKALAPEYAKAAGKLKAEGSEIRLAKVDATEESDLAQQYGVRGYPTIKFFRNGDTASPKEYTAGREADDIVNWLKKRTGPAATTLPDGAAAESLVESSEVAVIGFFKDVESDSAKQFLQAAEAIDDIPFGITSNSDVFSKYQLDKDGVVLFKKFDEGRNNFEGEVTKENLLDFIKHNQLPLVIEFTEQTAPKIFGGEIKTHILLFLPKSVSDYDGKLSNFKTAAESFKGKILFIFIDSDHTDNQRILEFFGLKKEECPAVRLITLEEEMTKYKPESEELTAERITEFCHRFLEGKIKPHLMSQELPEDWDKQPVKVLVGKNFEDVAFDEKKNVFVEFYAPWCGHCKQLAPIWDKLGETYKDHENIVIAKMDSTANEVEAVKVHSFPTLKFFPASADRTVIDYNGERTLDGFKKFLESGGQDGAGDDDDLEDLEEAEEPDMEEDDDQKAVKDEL

For O=C(O)CCC(=O)C(=O)O [α-ketoglutarate], the “UPLC peptide hydroxylation assay” value was “the reaction was initiated by the addition of α-ketoglutarate”.
